Laboratory results taken from US6203976A, “Methods of preparing compositions comprising chemicals capable of transcriptional modulation” (OSI Pharmaceuticals, Inc., priority 1994, dated 2001).

Columns and labels:
MMTV (M10) promoter = assay: High-throughput luciferase reporter assay, MMTV promoter (Screen III); assay type: cell-based, mouse; settings: M10 cells, 6 hours; for FOLD INHIBITION RELATIVE TO SOLVENT CONTROL, MMTV: Screen III inhibitors; for FOLD INDUCTION RELATIVE TO SOLVENT CONTROL, MMTV: Screen III activators
Procedure: pMluci and pSV2Neo, an antibiotic resistance plasmid (112), were co-transfected into NIH/3T3 mouse fibroblast cells using the calcium phosphate precipitation method (103) with a commercially available kit (Pharmacia, Piscataway N.J.). Two days later, cells were transferred to media containing 0.4 mg/ml G418 and were grown for an additional 10-14 days. G418-resistant clones were isolated by standard methods. Once sufficient cell numbers were obtained, clones were analyzed based on several criteria: constitutive luciferase production, induction of luciferase expression by dexamethasone (1 μm, Sigma, St. Louis, Mo.), satisfactory attachment to microtiter plates used in the high-throughput screen and acceptable standard deviation in multiple luciferase expression assays (see below for assay protocol). This analysis was carried out using the luciferase assay conditions described above. Of the clones which satisfied the above criteria for the high throuphput screen, one clone, M10, was selected for use.

[1] = tested on: human growth hormone (532) promoter; assay: High-throughput luciferase reporter assay, human Growth Hormone promoter (Screen III); assay type: cell-based; settings: 532 cells, 6 hours; for FOLD INHIBITION RELATIVE TO SOLVENT CONTROL, hGH: Screen III inhibitors; for FOLD INDUCTION RELATIVE TO SOLVENT CONTROL, hGH: Screen III activators
[2] = tested on: human G-CSF (G21) promoter; assay: High-throughput luciferase reporter assay, G-CSF promoter (Screen III); settings: G21 cells, 6 hours; for FOLD INDUCTION RELATIVE TO SOLVENT CONTROL, GCSF: Screen III activators; for FOLD INHIBITION RELATIVE TO SOLVENT CONTROL, GCSF: Screen III inhibitors

| Compound | FOLD INHIBITION RELATIVE TO SOLVENT CONTROL, MMTV (MMTV (M10) promoter) [fold] | FOLD INHIBITION RELATIVE TO SOLVENT CONTROL, hGH [1] [fold] | FOLD INDUCTION RELATIVE TO SOLVENT CONTROL, MMTV (MMTV (M10) promoter) [fold] | FOLD INDUCTION RELATIVE TO SOLVENT CONTROL, GCSF [2] [fold] | FOLD INDUCTION RELATIVE TO SOLVENT CONTROL, hGH [1] [fold] | FOLD INHIBITION RELATIVE TO SOLVENT CONTROL, GCSF [2] [fold] |
| --- | --- | --- | --- | --- | --- | --- |
| O=C(c1ccccc1)c1ccncc1 [compound 209] | 0.81 | 1.08 | – | – | – | – |
| N=c1cc2oc3cc(N)ccc3nc-2c2ccccc12 [compound 1776] | – | – | 1.36 | 3.50 | 0.15 | – |
| O=c1c(O)c(-c2ccc(O)c(O)c2)oc2cc(O)ccc12 [compound 325] | – | – | 1.0 | 0.14 | 5.42 | – |
| O=c1[nH]c(=O)c2nc3ccccc3nc2[nH]1 [compound 1890] | 0.58 | 5.26 | – | – | – | 0.80 |
| CCOc1ccc2nc3cc(N)ccc3c(N)c2c1 [compound 790] | – | – | 0.58 | 0.01 | 5.94 | – |
| CN(C)C(=S)SCC#N [compound 1793] | – | – | 1.21 | 9.50 | 0.52 | – |
| N#Cc1ccc(Br)cc1 [compound 1704] | 0.94 | 4.16 | – | – | – | 0.77 |
| O=S(=O)(O)c1ccc(-c2nnc(-c3ccnc(-c4nnc(-c5ccc(S(=O)(=O)O)cc5)c(-c5ccc(S(=O)(=O)O)cc5)n4)c3)nc2-c2ccc(S(=O)(=O)O)cc2)cc1 [compound 1604] | 0.97 | 5.00 | – | – | – | 0.77 |
| CC(CCl)CBr (centres unmarked) [compound 2096] | – | – | 0.89 | 3.27 | 0.61 | – |
| Cc1c(C(=O)O)c(O)cc2c1C(=O)c1c(O)c([C@@H]3O[C@H](CO)[C@@H](O)[C@H](O)[C@H]3O)c(O)c(O)c1C2=O [compound 1770] | 0.57 | 10.00 | – | – | – | 0.54 |
| CC1=CC(=C(c2cc(C)c(O)c(C(=O)O)c2)c2c(Cl)ccc(S(=O)(=O)O)c2Cl)C=C(C(=O)O)C1=O [compound 556] | 0.87 | 33.33 | – | – | – | 0.73 |
| O=C(O[C@H](C(=O)O)[C@H](OC(=O)c1ccccc1)C(=O)O)c1ccccc1 [compound 578] | 0.91 | 4.00 | – | – | – | 0.65 |
| NCc1ccc(S(N)(=O)=O)cc1 [compound 1375] | – | – | 1.37 | 8.94 | 0.04 | – |
| Cc1cc(N)sn1 [compound 1397] | – | – | 1.13 | 3.63 | 0.57 | – |
| CN(C)c1ccc(C(=C2C=CC(=[N+](C)C)C=C2)c2ccc([N+](C)(C)C)cc2)cc1 [compound 670] | – | – | 0.79 | > 3 | 0.52 | – |
| OCC1CC2C3CC(CO)C(C3)C2C1 (centres unmarked) [compound 1678] | – | – | 0.89 | 0.36 | 7.08 | – |
